ChEMBL document CHEMBL3627600, “Rapid synthesis and antimicrobial activity of novel 4-oxazolidinone heterocycles” (2015)
≈ marks a conversion by molar mass, not a printed value.

What was measured:
Format in all cases: functional
Staphylococcus aureus [1] = assay: Antimicrobial activity against Staphylococcus aureus ATCC 29213
Acinetobacter baumannii = assay: Antimicrobial activity against Acinetobacter baumannii ATCC 19606
Staphylococcus aureus [2] = assay: Antimicrobial activity against methicillin-resistant Staphylococcus aureus ATCC 33591

| Compound | MIC (Staphylococcus aureus [1]) [µg/mL] | MIC (Acinetobacter baumannii) [µg/mL] | MIC (Staphylococcus aureus [2]) [µg/mL] |
| --- | --- | --- | --- |
| COc1c(Br)cc(/C=C2\O[C@H]([C@@H](Cl)CCNC(=N)N)NC2=O)cc1Br | 12.5 (≈ 25.2 µM) | 100 (≈ 201 µM) | 20 (≈ 40.3 µM) |
| COc1c(Br)cc(/C=C2\O[C@H](CCCNC(=N)N)NC2=O)cc1Br | 32 (≈ 69.2 µM) | > 128 | 32 (≈ 69.2 µM) |
| CCCCCC1NC(=O)/C(=C/c2ccccc2)O1 (stereo not drawn) | 64 (≈ 261 µM) | > 128 | 128 (≈ 522 µM) |
| CCCCCC1NC(=O)/C(=C/c2ccc(C)cc2)O1 (stereo not drawn) | 32 (≈ 123 µM) | > 128 | > 128 |
| CCCCCC1NC(=O)/C(=C/c2ccc(C(C)(C)C)cc2)O1 (stereo not drawn) | > 128 | > 128 | > 128 |
| CCCCCC1NC(=O)/C(=C/c2ccc(F)cc2)O1 (stereo not drawn) | > 128 | > 128 | > 128 |
| CCCCCC1NC(=O)/C(=C/c2ccc(Cl)cc2)O1 (stereo not drawn) | > 128 | > 128 | > 128 |
| CCCCCC1NC(=O)/C(=C/c2ccc(C(F)(F)F)cc2)O1 (stereo not drawn) | 16 (≈ 51.1 µM) | > 128 | 16 (≈ 51.1 µM) |
| CCCCCC1NC(=O)/C(=C/c2ccccc2[N+](=O)[O-])O1 (stereo not drawn) | > 128 | > 128 | > 128 |
| CCCCCC1NC(=O)/C(=C/c2cc(Br)c(OC)c(Br)c2)O1 (stereo not drawn) | 16 (≈ 36.9 µM) | > 128 | 32 (≈ 73.9 µM) |
| CCCCCC1NC(=O)/C(=C/c2ccc(OC)cc2)O1 (stereo not drawn) | > 128 | > 128 | > 128 |
| CCCCCC1NC(=O)/C(=C/c2ccc([N+](=O)[O-])cc2)O1 (stereo not drawn) | 32 (≈ 110 µM) | > 128 | 32 (≈ 110 µM) |
| CC(=O)NC[C@H]1CN(c2ccc(N3CCOCC3)c(F)c2)C(=O)O1 [LINEZOLID] | 0.5 (≈ 1.48 µM) | > 128 | 1 (≈ 2.96 µM) |
| CN(C)[C@@H]1C(O)=C(C(N)=O)C(=O)[C@@]2(O)C(O)=C3C(=O)c4c(O)cccc4[C@@](C)(O)[C@H]3C[C@@H]12 [TETRACYCLINE] | 0.25 (≈ 0.563 µM) | 2 (≈ 4.5 µM) | 128 (≈ 288 µM) |
| CN[C@H](CC(C)C)C(=O)N[C@H]1C(=O)N[C@@H](CC(N)=O)C(=O)N[C@H]2C(=O)N[C@H]3C(=O)N[C@H](C(=O)N[C@H](C(=O)O)c4cc(O)cc(O)c4-c4cc3ccc4O)[C@H](O)c3ccc(c(Cl)c3)Oc3cc2cc(c3O[C@@H]2O[C@H](CO)[C@@H](O)[C@H](O)[C@H]2O[C@H]2C[C@](C)(N)[C@H](O)[C@H](C)O2)Oc2ccc(cc2Cl)[C@H]1O [VANCOMYCIN] |  | > 128 |  |
